# According to article PMC7394479 (Journal of medicinal chemistry, 2020):
# “Also recorded” adds a separate entry of the source. Where two headings read alike, the source gives them in different places.
# Columns and labels:
# [1] = Mouse liver microsomal stability
# [2] = cited from earlier work
# [3] = Kinetic aqueous solubility in PBS pH 7.4 by nephelometry; format: physicochemical; conditions: comparator 2a
# human EP2 receptor = human EP2 receptor (Homo sapiens, UniProt P43116); test: Cell-based cAMP TR-FRET assay, Schild KB against PGE2 at EP2; conditions: for fold less EP2 potency in comparison to 2a: comparator 2a; for fold less potent than equivalent nicotinic derivative: 11a vs 8b, 11b vs 8g, 11c vs 8f
# human EP2 receptor, sequence (P43116 whole entry): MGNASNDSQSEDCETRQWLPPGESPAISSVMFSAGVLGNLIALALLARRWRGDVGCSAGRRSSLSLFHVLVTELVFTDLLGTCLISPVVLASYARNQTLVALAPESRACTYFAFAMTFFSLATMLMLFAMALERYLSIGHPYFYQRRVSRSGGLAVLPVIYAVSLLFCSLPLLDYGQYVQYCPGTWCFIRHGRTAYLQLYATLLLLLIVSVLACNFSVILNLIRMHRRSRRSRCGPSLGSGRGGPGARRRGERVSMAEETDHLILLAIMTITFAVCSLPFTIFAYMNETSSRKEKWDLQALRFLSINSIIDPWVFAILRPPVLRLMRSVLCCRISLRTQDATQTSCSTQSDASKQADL
# [4] = Solubility in simulated gastric fluid pH 2.0 by nephelometry; format: physicochemical
# human EP4 receptor = human EP4 receptor (Homo sapiens, UniProt P35408); test: Cell-based cAMP TR-FRET assay, Schild KB against PGE2 at EP4; conditions: for S.I (EP4/EP2): selectivity index EP4 KB/EP2 KB
# human EP4 receptor, sequence (P35408 whole entry): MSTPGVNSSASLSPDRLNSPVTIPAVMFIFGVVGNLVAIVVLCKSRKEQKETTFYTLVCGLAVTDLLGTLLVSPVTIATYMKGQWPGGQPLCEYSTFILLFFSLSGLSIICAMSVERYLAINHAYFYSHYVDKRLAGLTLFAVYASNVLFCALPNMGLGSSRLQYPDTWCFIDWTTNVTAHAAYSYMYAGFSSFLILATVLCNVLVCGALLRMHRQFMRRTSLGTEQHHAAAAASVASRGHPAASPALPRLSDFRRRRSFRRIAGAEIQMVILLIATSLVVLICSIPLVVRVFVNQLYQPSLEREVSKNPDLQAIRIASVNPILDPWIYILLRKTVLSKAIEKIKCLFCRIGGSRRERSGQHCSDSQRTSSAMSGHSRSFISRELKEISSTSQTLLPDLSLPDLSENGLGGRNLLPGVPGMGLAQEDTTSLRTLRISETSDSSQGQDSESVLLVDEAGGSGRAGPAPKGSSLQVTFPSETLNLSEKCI
# human IP receptor = human IP receptor (Homo sapiens, UniProt P43119); test: Cell-based cAMP TR-FRET assay, Schild KB against iloprost at IP; conditions: for S.I (IP/EP2): selectivity index IP KB/EP2 KB
# human IP receptor, sequence (P43119 whole entry): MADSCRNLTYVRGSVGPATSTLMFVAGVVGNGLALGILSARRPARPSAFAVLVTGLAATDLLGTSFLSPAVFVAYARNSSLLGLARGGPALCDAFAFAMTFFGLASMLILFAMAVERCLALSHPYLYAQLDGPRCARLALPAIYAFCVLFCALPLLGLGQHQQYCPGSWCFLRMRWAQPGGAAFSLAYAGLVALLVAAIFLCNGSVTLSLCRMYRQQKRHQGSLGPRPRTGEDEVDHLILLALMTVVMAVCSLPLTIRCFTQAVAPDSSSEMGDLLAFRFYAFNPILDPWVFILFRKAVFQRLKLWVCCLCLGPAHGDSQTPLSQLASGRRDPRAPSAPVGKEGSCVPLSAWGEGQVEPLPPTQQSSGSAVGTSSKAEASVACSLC
# human DP1 receptor = molecular target: T1, human DP1 receptor (Homo sapiens, UniProt Q13258); test: Cell-based cAMP TR-FRET assay, Schild KB against BW245C at DP1; conditions: for S.I. (DP1/EP2): selectivity index DP1 KB/EP2 KB
# T1 sequence (Q13258 1-359): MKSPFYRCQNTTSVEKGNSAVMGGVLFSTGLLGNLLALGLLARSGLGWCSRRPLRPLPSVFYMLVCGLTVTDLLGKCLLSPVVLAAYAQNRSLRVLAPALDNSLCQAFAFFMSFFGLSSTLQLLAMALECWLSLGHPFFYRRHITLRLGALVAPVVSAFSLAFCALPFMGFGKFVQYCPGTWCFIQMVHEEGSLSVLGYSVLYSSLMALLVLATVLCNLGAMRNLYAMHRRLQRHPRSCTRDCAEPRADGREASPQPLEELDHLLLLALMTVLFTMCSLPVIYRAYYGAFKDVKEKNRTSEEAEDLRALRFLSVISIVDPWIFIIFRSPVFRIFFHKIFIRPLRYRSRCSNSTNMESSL
# [5] = Mouse pharmacokinetics and brain-to-plasma ratio; format: in vivo
# MDR1-MDCK cell line [6] = tested on: MDR1-MDCK cell line
# [7] = 24 h shake flask thermodynamic solubility in neat water; format: physicochemical
# MDR1-MDCK cell line [8] = test: Permeability across MDR1-expressed MDCK cell monolayers
# [9] = Human liver microsomal stability; format: in vitro ADME; conditions: 1 μM compound, 0.5 mg/mL human liver microsomes (compounds 1 and 3)
# [10] = Metabolite identification in mouse liver microsomes; format: in vitro ADME; conditions: 20 min incubation, LC-MS/MS
structure (smiles),measurement,setting,value
Cc1[nH]c2ccccc2c1CCNC(=O)c1ccc(N2CCOCC2)cc1 [2a],half-life at 1 μM,"[1]; mouse, pooled liver microsomes",< 2 min
same,half-life in mouse liver microsomes,[2],< 2 min
"Cc1[nH]c2ccccc2c1CCNC(=O)c1ccc(N2CCOCC2)nc1 [2b, N-(2-(2-Methyl-1H-indol-3-yl)ethyl)-6-morpholinonicotinamide]",fold increased aqueous solubility,[3],3 fold
same,fold less EP2 potency in comparison to 2a,human EP2 receptor,4 fold
"Cc1[nH]c2ccccc2c1CCNC(=O)c1ccc(-c2ccccc2F)nc1 [8e, 6-(2-Fluorophenyl)-N-(2-(2-methyl-1H-indol-3-yl)ethyl)nicotinamide]",fold less EP2 potency in comparison to 2a,human EP2 receptor,2 fold
same,fold less EP2 potency in comparison to 8c,human EP2 receptor; comparator 8c (14b: vs. 14c or 8c),4 fold
"COc1cccc(-c2ccc(C(=O)NCCc3c(C)[nH]c4ccccc34)nc2)c1 [11a, 5-(3-Methoxyphenyl)-N-(2-(2-methyl-1H-indol-3-yl)ethyl)picolinamide]",fold less potent than equivalent nicotinic derivative,human EP2 receptor,4 fold
"COc1cc(OC)cc(-c2ccc(C(=O)NCCc3c(C)[nH]c4ccccc34)nc2)c1 [11b, 5-(3,5-Dimethoxyphenyl)-N-(2-(2-methyl-1H-indol-3-yl)ethyl)picolinamide]",fold less potent than equivalent nicotinic derivative,human EP2 receptor,11 fold
"COc1ccccc1-c1ncc(C(=O)NCCc2c(C)[nH]c3ccccc23)cn1 [14a, 2-(2-Methoxyphenyl)-N-(2-(2-methyl-1H-indol-3-yl)ethyl)pyrimidine-5-carboxamide]",solubility,[4]; simulated gastric fluid,> 100 µM
same,S.I (EP4/EP2),human EP4 receptor,517
same,S.I (IP/EP2),human IP receptor,730
"Cc1[nH]c2ccccc2c1CCNC(=O)c1cnc(Nc2ccccn2)nc1 [20a, N-(2-(2-Methyl-1H-indol-3-yl)ethyl)-2-(pyridin-2-ylamino)pyrimidine-5-carboxamide]",S.I. (DP1/EP2),human DP1 receptor,>900
same,S.I (IP/EP2),human IP receptor,>900
"Cc1[nH]c2ccccc2c1CCNC(=O)c1cnc(Nc2cc(F)ccn2)nc1 [20c, 2-((4-Fluoropyridin-2-yl)amino)-N-(2-(2-methyl-1H-indol-3-yl)ethyl)pyrimidine-5-carboxamide]",in vivo stability in words,"[5]; mouse, in vivo",unstable in vivo
same,S.I (EP4/EP2),human EP4 receptor,>1500
same,S.I (IP/EP2),human IP receptor,>1500
"Cc1cccc(Nc2ncc(C(=O)NCCc3c(C)[nH]c4ccccc34)cn2)n1 [20e, N-(2-(2-Methyl-1H-indol-3-yl)ethyl)-2-((6-methylpyridin-2-yl)amino)pyrimidine-5-carboxamide]",S.I (EP4/EP2),human EP4 receptor,>1500
same,S.I (IP/EP2),human IP receptor,>1500
"Cc1[nH]c2ccccc2c1CCNC(=O)c1cnc(Nc2cccc(F)n2)nc1 [20f, 2-((6-Fluoropyridin-2-yl)amino)-N-(2-(2-methyl-1H-indol-3-yl)ethyl)pyrimidine-5-carboxamide]",fold higher half-life in mouse liver microsomes,"[1]; 24i vs 20o, 20c vs 20b, 20f vs 20e",8 fold
"COc1cccc(Nc2ncc(C(=O)NCCc3c(C)[nH]c4ccccc34)cn2)n1 [20h, 2-((6-Methoxypyridin-2-yl)amino)-N-(2-(2-methyl-1H-indol-3-yl)ethyl)pyrimidine-5-carboxamide]",Kb,human DP1 receptor,> 10 µM
same,S.I. (DP1/EP2),human DP1 receptor,>1280
same,Kb,human IP receptor,> 10 µM
same,S.I (IP/EP2),human IP receptor,>1280
"CC(=O)c1ccc(Nc2ncc(C(=O)NCCc3c(C)[nH]c4ccccc34)cn2)nc1 [20l, 2-((5-Acetylpyridin-2-yl)amino)-N-(2-(2-methyl-1H-indol-3-yl)ethyl)pyrimidine-5-carboxamide]",fold reduced EP2 potency in comparison to 20b,human EP2 receptor; comparator 20b,20 fold
"Cc1cc(C)nc(Nc2ncc(C(=O)NCCc3c(C)[nH]c4ccccc34)cn2)c1 [20o, 2-((4,6-Dimethylpyridin-2-yl)amino)-N-(2-(2-methyl-1H-indol-3-yl)ethyl)pyrimidine-5-carboxamide]",efflux pump substrate status,MDR1-MDCK cell line [6],not the substrate of efflux pumps
same,"Permeability across MDR1-MDCK cell line, A-B",MDR1-MDCK cell line [6]; dog,B-A: 22.2 × 10^−6 cm/s A-B: 13.2 × 10^−6 cm/s
same,"Permeability across MDR1-MDCK cell line, B-A",MDR1-MDCK cell line [6]; dog,B-A: 22.2 × 10^−6 cm/s A-B: 13.2 × 10^−6 cm/s
same,solubility,[4],> 250 µM
"Cc1cc(C)nc(Nc2ncc(C(=O)NCCc3c(C)[nH]c4ccccc34)cn2)c1.Cl [20o.HCl, 2-((4,6-Dimethylpyridin-2-yl)amino)-N-(2-(2-methyl-1H-indol-3-yl)ethyl)pyrimidine-5-carboxamide.Hydrochloride]",water pH after dissolving the compound,"[7]; 2 mg/mL in neat water, starting pH 6.4",3.5
"Cc1[nH]c2ccccc2c1CCNC(=O)c1cnc(Nc2ccncc2)nc1 [20p, N-(2-(2-Methyl-1H-indol-3-yl)ethyl)-2-(pyridin-4-ylamino)pyrimidine-5-carboxamide]",EP2 potency in words,human EP2 receptor,complete loss of potency
"Cc1[nH]c2ccccc2c1CCNC(=O)c1cnc(Nc2cccnc2)nc1 [20q, N-(2-(2-Methyl-1H-indol-3-yl)ethyl)-2-(pyridin-3-ylamino)pyrimidine-5-carboxamide]",Kb,human EP4 receptor,> 10 µM
same,S.I (EP4/EP2),human EP4 receptor,>1200
same,Kb,human IP receptor,> 10 µM
same,S.I (IP/EP2),human IP receptor,>1200
"Cc1ccc(Nc2ncc(C(=O)NCCc3c(C)[nH]c4ccccc34)cn2)c(C)n1 [20r, 2-((2,6-Dimethylpyridin-3-yl)amino)-N-(2-(2-methyl-1H-indol-3-yl)ethyl)pyrimidine-5-carboxamide]",fold reduced EP2 potency,human EP2 receptor; comparator not clearly stated,10 fold
"Cc1cc(C)nc(Nc2ncc(C(=O)NCCc3c(C)[nH]c4ccc(Cl)cc34)cn2)c1 [24b, N-(2-(5-Chloro-2-methyl-1H-indol-3-yl)ethyl)-2-((4,6-dimethylpyridin-2-yl)amino)pyrimidine-5-carboxamide]",Kb,human EP4 receptor,> 10 µM
same,S.I (EP4/EP2),human EP4 receptor,>350
same,Kb,human IP receptor,> 10 µM
same,S.I (IP/EP2),human IP receptor,>350
"Cc1cc(C)nc(Nc2ncc(C(=O)NCCc3c(C)[nH]c4c(F)cc(F)cc34)cn2)c1 [24c, N-(2-(5,7-Difluoro-2-methyl-1H-indol-3-yl)ethyl)-2-((4,6-dimethylpyridin-2-yl)amino)pyrimidine-5-carboxamide]",solubility,[4]; simulated gastric fluid,> 100 µM
same,Kb,human IP receptor,> 10 µM
same,S.I (IP/EP2),human IP receptor,>500
Cc1cc(C)nc(Nc2ncc(C(=O)NCCc3c(C)[nH]c4c(Cl)cc(Cl)cc34)cn2)c1.Cl [24d.HCl],Water solubility of corresponding HCl salt,"[7]; HCl salt, neat water, 2 mg/mL, 24 h shake flask, HPLC","c The solubility of compounds measured in simulated gastric fluid at pH 2.0 by nephelometry. Compound 24dis a milky-white solution in DMSO and 24 h is an inactive compound. Therefore, their solubility is not determined by nephelometry, however, 24d.HClis highly water soluble."
"Cc1cc(C)nc(Nc2ncc(C(=O)NCCc3c(C(F)(F)F)[nH]c4ccccc34)cn2)c1 [24f, 2-((4,6-Dimethylpyridin-2-yl)amino)-N-(2-(2-(trifluoromethyl)-1H-indol-3-yl)ethyl)pyrimidine-5-carboxamide]",fold reduced EP2 potency in comparison to 20o,human EP2 receptor; comparator 20o,8 fold
"Cc1cc(C)nc(Nc2ncc(C(=O)NCC(=O)c3c(C)[nH]c4ccccc34)cn2)c1 [24h, 2-((4,6-Dimethylpyridin-2-yl)amino)-N-(2-(2-methyl-1H-indol-3-yl)-2-oxoethyl)pyrimidine-5-carboxamide]",EP2 potency in words,human EP2 receptor,eliminated the potency
COc1cc(/C=C/C(=O)NCCn2c(C(F)(F)F)cc3ccccc32)cc(OC)c1OC [compound 1],MLM t1/2,"[1]; 1 μM compound, 0.5 mg/mL mouse liver microsomes (compounds 1 and 3)",10 min
same,In vivo plasma t1/2,"[5]; mice, ip/po, 10 mg/kg dose","1.7 (ip/po, 10 mg/kg dose) h"
same,"Permeability across MDR1-MDCK cell line, A-B",MDR1-MDCK cell line [8]; apical-to-basolateral,25.4 ×10⁻⁶ cm/s
same,"Permeability across MDR1-MDCK cell line, B-A",MDR1-MDCK cell line [8]; basolateral-to-apical,27.1 ×10⁻⁶ cm/s
same,HLM t1/2,[9],11 min
Cc1[nH]c2ccccc2c1CCNC(=O)c1ccc(-c2nnn[nH]2)cc1 [compound 3],stability in mouse liver microsomes,[2],> 60 min
same,metabolic fragments in mouse liver microsomes,[10],did not produce any fragments even after 20 minutes of incubation; also recorded: has not shown any metabolic fragments even after 20 min of incubation
